In EP4721753A1, “PHARMACEUTICAL COMPOSITION FOR PREVENTING OR TREATING CORONAVIRUS INFECTIOUS DISEASES COMPRISING CELL-PERMEABLE PEPTIDE-NUCLEIC ACID OLIGOMER AS ACTIVE INGREDIENT” (GiftedMS Co., Ltd., priority 2023, dated 2024) one finds Inhibition% and IC50 data, which are given here for two molecules.

Common to all, as to assay type: cell-based
One assay deals with SARS-CoV-2. As to conditions: 1000 nM; Vero cells pre-incubated 2 hours; viral RNA 24 hours after infection.
The subject of a further assay is SARS-CoV-2 virus. The following applies: Vero cells, 1000 to 0.49 nM, 2-fold dilution, viral RNA after 24 hours, three repeated experiments.
Another assay relates to HCoV-OC43. In words: qRT-PCR evaluation of antiviral efficacy (viral RNA level in culture supernatant), HCT8 cells infected with HCoV-OC43. The following applies: 1 µM PNA oligomer; HCT8 cells infected with HCoV-OC43 at 500 TCID50; viral RNA from cell supernatant on Day 3 after infection. The procedure: In order to analyze the level of viral RNA in viral particles present in a virus culture solution to determine how well the constructed PNA oligomer-based drugs inhibit viral genetic replication, qRT-PCR was performed.
Specifically, HCT8 cells cultured in 6-well plates one day before for drug screening were infected with HCoV-OC43 at a dose of 500 TCID50 using a serum-free RPMI medium. At the same time as infection, the cells were also treated with 1 µM of PNA oligomer, and after 30 minutes, the cells were washed twice with serum-free RPMI, and then the medium was replaced with an RPMI-Complete medium (containing 10% FBS and 1% penicillin/streptomycin) and the cells were treated with 1 µM of PNA oligomer. On Day 3 after infection, viral RNA was extracted from 140 µL of the cell supernatant using a QIAamp viral RNA mini kit manufactured by Qiagen. Virus extraction was performed according to the kit manual. The viral titer of the extracted viral RNA was measured by real-time PCR using a One step TB green kit manufactured by Takara. The primers used are as follows. HCoV-OC43 primer; Nucleoprotein (NP) gene (5'-[…]-3', 5'-[…]-3'). Real-time PCR conditions are as follows. Temperature Stage 1: Reverse transcription 42°C 5 min, 95°C 10 sec, 1 Cycle. Stage 2: PCR reaction 95°C 5 sec, 60°C 34 sec, 35 Cycles. Stage 3: melting curve analysis 95°C 15 sec, 65°C 60 sec, 95°C 15 sec.
(In general: Quantitative PCR measures a nucleic acid by following its amplification.)

pIC50: −log10 of the molar value. Values joined by “and” are separate entries in the source; they are usually repeats but may differ in a detail not shown here. Identical values can stand only once. Like-named read-outs stand apart in the source and are kept apart here.

As usually defined, the pIC50 is the negative decadic logarithm of the IC50, by convention in mol/L. Paxlovid returned an Inhibition% in the assay with SARS-CoV-2 of 96.03%. For the same molecule, the pIC50 was 6.50 and 6.48 and 6.33 in the assay with SARS-CoV-2 virus; 6.50 with SARS-CoV-2 virus (listed as Paxlovid (P.C)-1); 6.48 in the assay with SARS-CoV-2 virus (listed as Paxlovid (P.C)-2); 6.33 in the assay on SARS-CoV-2 virus (listed as Paxlovid (P.C)-3).
With `CC(C)(C)[C@H](NC(=O)C(F)(F)F)C(=O)N1C[C@H]2[C@@H]([C@H]1C(=O)N[C@H](C#N)C[C@@H]1CCNC1=O)C2(C)C` [PF07321332, Nirmatrelvir], the Inhibition% in the assay with HCoV-OC43 worked out at 97.98%.
